Tests used:
Type in all cases: in vivo
[1] = tested on: Cotton Aphid (Aphis gossypii), mixed life stages; test: Cotton aphid (Aphis gossypii), mixed life stages, cotyledon dip test; settings: 120 h, infested cotton cotyledons dipped, determined after 5 days, read-out: mortality of cotton aphid in comparison with untreated controls
Description: (§1) The active compounds were formulated in a mixture of 50 vol.-% acetone:50 vol.-% water. A nonionic surfactant (Kinetic®) was included in the solution at a volume of 0.01% v/v.
(§2) In the following tests, the formulated solutions of the active compounds were diluted to an active ingredient concentration of 300 ppm and the diluted solutions were applied in the below mentioned tests.
(§3) II.1 Cotton Aphid (Aphis gossypil), Mixed Life Stages • Cotton plants at the cotyledon stage were infested prior to treatment by placing a heavily infested leaf from the main aphid colony on top of each cotyledon. The aphids were allowed to transfer overnight and the host leaf was removed. The infested cotyledons were then dipped and agitated in the test solution for 3 seconds and allowed to dry in a fume hood. […] Aphid mortality on the treated plants, relative to mortality on untreated check plants, was determined after 5 days. • In this test compounds each of examples 12 to 36, 38, 39, 40 and 41 at 300 ppm provided at least 90% mortality of cotton aphid (Aphis gossypii, mixed life stages) in comparison with untreated controls. […] Aphid mortality on the treated plants, relative to mortality on untreated check plants, was determined after 5 days. • In this test compounds each of examples 12 to 36, 38, 39, 40 and 41 at 300 ppm provided at least 90% mortality of green peach aphidin comparison with untreated controls. […]

[2] = tested on: Bean Aphid (Aphis fabae); test: Bean aphid (Aphis fabae), nasturtium plant dip test; settings: 72 h, infested nasturtium plants dipped, determined after 3 days, read-out: mortality of bean aphid in comparison with untreated controls
[3] = tested on: Green Peach Aphid (Myzus persicae), mixed life stages; test: Green peach aphid (Myzus persicae), mixed life stages, bell pepper leaf dip test; settings: foliar, 120 h, infested bell pepper leaves dipped, determined after 5 days, read-out: mortality of green peach aphid in comparison with untreated controls
Description: as §1, §2, §3

Measured: mortality at 300 ppm

Cc1cncc(S(=O)(=O)N(C)C)c1C#N [Example 12, 4-Cyano-5-methyl-pyridine-3-sulfonic acid dimethylamide]
≥ 90%: all assays above
